Experimental data reported in US20190364896A1, “SYNERGISTIC WEED CONTROL FROM APPLICATIONS OF PYRIDINE CARBOXYLIC ACID HERBICIDES AND ALS INHIBITORS” (Dow AgroSciences LLC, priority 2014, published 2019).
“And” between values parts separate entries of the source, which are not always exact repeats. Equal entries are not always repeated.

Assays:
[1] = system: blackgrass (Alopecurus myosuroides, ALOMY); test: Postemergence herbicidal activity, greenhouse trial (visual injury 0-100%); type: in vivo
In short: (§1)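 Greenhouse plants at the 2nd–3rd true-leaf stage (14 h photoperiod, ~23/22 °C) were track-sprayed at 187 L/ha with acetone/DMSO stocks diluted in 1.5% v/v crop oil concentrate. Rates were g ae/ha for component (a) and g ai/ha for (b). Injury versus solvent-blank controls was rated visually at 20–22 d, with Colby's equation giving expected mixture effects.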

[2] = system: grain sorghum (Sorghum vulgare, SORVU); test: as above; type: in vivo
In short: as §1

Question: Which “% visual injury Obs” value ([1]; 5 g ae/ha) does the source give for Nc1c(F)c(-c2ccc3cc[nH]c3c2F)nc(C(=O)O)c1Cl [Compound 1] here?
Answer: The value was 0%.

Question: What about the “% visual injury Obs” value ([1]; 10 g ae/ha) of the same compound?
Answer: Its value is 0%.

Question: And the “% visual injury Obs” value ([1]; ALOMY, Compound 1 5 g ae/ha)?
Answer: The value was 0%.

Question: What about the “% visual injury Obs” value ([1]; ALOMY, Compound 1 10 g ae/ha) of the same compound?
Answer: The value was 0%.

Question: And the “% visual injury Obs” value ([2]; 5 g ae/ha)?
Answer: Its value is 10% and 0%.

Question: And the “% visual injury Obs” value ([2]; 10 g ae/ha)?
Answer: Its value is 50%.

Question: And the “% visual injury Obs” value ([2]; SORVU, Compound 1 5 g ae/ha)?
Answer: The value was 0% and 10%.

Question: What about the “% visual injury Obs” value ([2]; SORVU, Compound 1 10 g ae/ha) of the same compound?
Answer: Its value is 50%.
